According to ChEMBL document CHEMBL1143939, “Binding effect and design of a competitive inhibitory peptide for HMG-CoA reductase through modeling of an active peptide backbone” (Bioorg Med Chem, 2008):
Calls of active or inactive are those of the source. The rule behind the calls is not given here. Non-standard residues stand in square brackets, D forms with d. Residues, ends and D or L forms follow the SMILES beside them. Phe(4-F) = N[C@@H](Cc1ccc(F)cc1)C(=O)O

Molecular target: T1, 3-hydroxy-3-methylglutaryl-coenzyme A reductase (Mesocricetus auratus, UniProt P09610)
T1 sequence (P09610 whole entry): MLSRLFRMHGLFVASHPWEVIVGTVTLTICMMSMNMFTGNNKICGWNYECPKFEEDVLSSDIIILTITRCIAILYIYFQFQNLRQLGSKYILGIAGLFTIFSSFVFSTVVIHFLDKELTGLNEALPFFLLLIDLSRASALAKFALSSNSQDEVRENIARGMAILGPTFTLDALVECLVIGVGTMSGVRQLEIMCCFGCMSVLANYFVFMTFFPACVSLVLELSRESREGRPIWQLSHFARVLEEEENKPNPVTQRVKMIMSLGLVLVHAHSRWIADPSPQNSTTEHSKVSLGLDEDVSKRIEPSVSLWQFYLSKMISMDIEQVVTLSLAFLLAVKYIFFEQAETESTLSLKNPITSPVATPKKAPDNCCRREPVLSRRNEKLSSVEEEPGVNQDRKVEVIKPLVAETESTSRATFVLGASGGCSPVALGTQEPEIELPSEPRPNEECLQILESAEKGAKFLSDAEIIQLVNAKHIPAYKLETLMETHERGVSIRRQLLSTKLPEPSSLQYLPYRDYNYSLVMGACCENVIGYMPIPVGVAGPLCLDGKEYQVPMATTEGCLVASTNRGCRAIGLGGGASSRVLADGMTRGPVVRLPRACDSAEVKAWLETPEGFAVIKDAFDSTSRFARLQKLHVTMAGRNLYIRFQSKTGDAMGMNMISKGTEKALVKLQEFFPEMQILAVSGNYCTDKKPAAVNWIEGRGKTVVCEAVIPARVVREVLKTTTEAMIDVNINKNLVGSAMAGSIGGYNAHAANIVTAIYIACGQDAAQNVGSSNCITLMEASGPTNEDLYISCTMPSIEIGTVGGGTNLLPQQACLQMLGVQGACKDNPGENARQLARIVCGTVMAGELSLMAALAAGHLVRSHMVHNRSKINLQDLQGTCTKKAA
Assay: (§1) Inhibition of Syrian hamster HMGR

Row | Compound | IC50 [µM]
1 | CC[C@H](C)[C@H](N)C(=O)N[C@@H](C)C(=O)N[C@H](C(=O)N1CCC[C@H]1C(=O)O)C(C)C (H-IAVP-OH) | 97.1
2 | CC(C)[C@H](NC(=O)[C@H](C)NC(=O)[C@@H](N)Cc1ccc(O)cc1)C(=O)N[C@@H](CCC(=O)O)C(=O)O (H-YAVE-OH) | 52.6
3 | CC(C)[C@H](NC(=O)[C@@H](N)Cc1ccc(O)cc1)C(=O)N[C@@H](C)C(=O)N[C@@H](CCC(=O)O)C(=O)O (H-YVAE-OH) | 41.8
4 | CC(C)[C@H](NC(=O)[C@@H](N)Cc1ccc(F)cc1)C(=O)N[C@@H](C)C(=O)N[C@@H](CCC(=O)O)C(=O)O (H-[Phe(4-F)]VAE-OH) | 3.8
5 | H-GFPDGG-OH | 1.5
6 | H-GFPEGG-OH | 1.7
7 | H-GLPDGG-OH | 22.3
8 | H-IAVPGEVA-OH | 152

Next, values leading:

Row | IC50 [µM] | Compound
9 | 43.8 | CC(C)[C@H](NC(=O)[C@@H](N)Cc1ccccc1)C(=O)N[C@@H](C)C(=O)N[C@@H](CCC(=O)O)C(=O)O (H-FVAE-OH)
10 | 75.2 | CC[C@H](C)[C@H](N)C(=O)N[C@@H](C)C(=O)N[C@H](C(=O)N[C@@H](CCC(=O)O)C(=O)O)C(C)C (H-IAVE-OH)
11 | 44.1 | CC[C@H](C)[C@H](N)C(=O)N[C@H](C(=O)N[C@@H](C)C(=O)N[C@@H](CCC(=O)O)C(=O)O)C(C)C (H-IVAE-OH)
12 | 485 | CC(C)C[C@H](N)C(=O)N1CCC[C@H]1C(=O)N[C@@H](Cc1ccc(O)cc1)C(=O)N1CCC[C@H]1C(=O)O (H-LPYP-OH)
13 | 16.9 | H-GFPTGG-OH
14 | 27.2 | H-GLPEGG-OH
15 | 19.4 | H-GLPTGG-OH

Molecular target: T2, 3-hydroxy-3-methylglutaryl-coenzyme A reductase (Mesocricetus auratus) (UniProt P09610)
T2 sequence (whole entry): T1 sequence (P09610 whole entry)
Assay: as §1

Row | Activity | Compound
16 | inactive | CC(C)[C@H](NC(=O)CN)C(=O)N[C@@H](C)C(=O)N[C@@H](CCC(=O)O)C(=O)O (H-GVAE-OH)
17 | inactive | H-GGPTGG-OH
